We go through 7 molecules from PubChem BioAssay (NCI).

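Step 1: Grow cells in 96-well plates. Step 2: Expose to compound for 48 hours at 5 concentrations. Step 3: Interpolate endpoints linearly; if unreached, use highest concentration. At the GI50, growth is halved. At the TGI there is no net growth.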

Among the test systems are NCI-H460 lung; HL-60(TB) leukemia; BT-549 breast; A549 NSCLC; OVCAR-3 ovarian; SK-MEL-2 melanoma; MDA-MB-435; SN12C renal; TK-10 renal; SF-539 CNS.
Common to all, as to experiment: NCI tumour cell line growth inhibition, 48 h

As to `O=C(COc1ccc(/C=C2\Oc3ccccc3C2=O)cc1)Nc1nc2ccccc2s1`, the GI50 with NCI-H460 lung is 43.8 µM; with HL-60(TB) leukemia it was 1.68 µM; in the experiment on BT-549 breast, 6.67 µM; in the experiment with A549 NSCLC, 4.96 µM; in the experiment with OVCAR-3 ovarian, 1.9 µM; with SK-MEL-2 melanoma it was 14.6 µM. The GI50 was 8.21 µM with MDA-MB-435, 10.5 µM in the experiment on SN12C renal, greater than 84.8 µM in the experiment on TK-10 renal and 3.16 µM with SF-539 CNS. In addition, the TGI in the experiment with NCI-H460 lung is greater than 100 µM; in the experiment with HL-60(TB) leukemia, 3.51 µM; in the experiment on BT-549 breast, greater than 80.5 µM; with A549 NSCLC, greater than 72.7 µM; in the experiment with OVCAR-3 ovarian it was 4.78 µM; with SK-MEL-2 melanoma, greater than 68.6 µM. Moreover, the TGI in the experiment on MDA-MB-435, in the experiment on SN12C renal, in the experiment with TK-10 renal and in the experiment on SF-539 CNS was greater than 100 µM in each case.

As for `O=C(O)CN(CCN(CC(=O)O)CC(=O)O)CC(=O)O.[Mn+2]`, the GI50 in the experiment on NCI-H460 lung, in the experiment on HL-60(TB) leukemia, in the experiment on BT-549 breast, with A549 NSCLC, with OVCAR-3 ovarian and in the experiment on SK-MEL-2 melanoma was greater than 100 µM throughout. The GI50 with MDA-MB-435, in the experiment on SN12C renal, with TK-10 renal and in the experiment on SF-539 CNS was greater than 100 µM in each case. The TGI in the experiment with NCI-H460 lung, in the experiment on HL-60(TB) leukemia, in the experiment on BT-549 breast, in the experiment with A549 NSCLC, with OVCAR-3 ovarian and with SK-MEL-2 melanoma was greater than 100 µM in each case. The TGI in the experiment with MDA-MB-435, in the experiment on SN12C renal, with TK-10 renal and in the experiment with SF-539 CNS was greater than 100 µM each time.

Turning to `CCSCC1CC(O)(c2ccccc2)C(c2ccccc2)C(c2ccc(F)cc2)O1` (stereo not given), the GI50 was 1.83 µM in the experiment with NCI-H460 lung; 1.7 µM with HL-60(TB) leukemia; 2.31 µM with BT-549 breast; 2.15 µM with A549 NSCLC; 2.19 µM in the experiment on OVCAR-3 ovarian; 1.98 µM in the experiment with SK-MEL-2 melanoma. The GI50 in the experiment with MDA-MB-435 was 1.98 µM; in the experiment with SN12C renal, 1.89 µM; in the experiment on TK-10 renal, 2.6 µM; with SF-539 CNS, 1.6 µM. Also, the TGI with NCI-H460 lung is 4.01 µM; in the experiment with HL-60(TB) leukemia, 6.33 µM; with BT-549 breast it was 7.72 µM; in the experiment with A549 NSCLC it was 6.35 µM; in the experiment with OVCAR-3 ovarian, 5.26 µM; in the experiment with SK-MEL-2 melanoma, 4 µM. In addition, the TGI was found to be 5.24 µM with MDA-MB-435, 5.25 µM in the experiment with SN12C renal, 7.28 µM in the experiment on TK-10 renal and 3.07 µM in the experiment with SF-539 CNS.

Turning to `COc1ccc(-c2nc3ccc(Cc4ccc5nc(-c6ccc(OC)cc6)[nH]c5c4)cc3[nH]2)cc1`, the GI50 in the experiment on NCI-H460 lung was 0.0335 µM; in the experiment with HL-60(TB) leukemia, less than 0.0145 µM; in the experiment on BT-549 breast, 0.231 µM; with A549 NSCLC, 0.0438 µM; with OVCAR-3 ovarian, 0.0217 µM; with SK-MEL-2 melanoma, 0.0404 µM. Besides, the GI50 in the experiment on MDA-MB-435 was less than 0.01 µM; with SN12C renal, 0.165 µM; in the experiment on TK-10 renal, 1.1 µM; in the experiment with SF-539 CNS, 0.022 µM. Further, the TGI with NCI-H460 lung was 0.122 µM; with HL-60(TB) leukemia it was 0.079 µM; in the experiment with BT-549 breast it was 2.54 µM; in the experiment with A549 NSCLC, 0.237 µM; with OVCAR-3 ovarian, 0.0503 µM; with SK-MEL-2 melanoma it was 1.75 µM. Further, the TGI in the experiment on MDA-MB-435 worked out at 0.0202 µM; with SN12C renal it was 2.29 µM; in the experiment with TK-10 renal, 2.32 µM; with SF-539 CNS, 0.0707 µM.

For the molecule `Cc1cc(Cl)nc(N(CCNc2ccnc3cc(Cl)ccc23)Cc2ccco2)n1`, the GI50 with NCI-H460 lung was 1.84 µM; in the experiment on HL-60(TB) leukemia, 1.65 µM; with BT-549 breast, 1.66 µM; in the experiment with A549 NSCLC, 3.1 µM; in the experiment on OVCAR-3 ovarian, 1.75 µM; with SK-MEL-2 melanoma, 2.18 µM. For the same molecule, the GI50 is 1.76 µM with MDA-MB-435, 1.98 µM in the experiment with SN12C renal, 2.62 µM in the experiment with TK-10 renal and 1.87 µM with SF-539 CNS. Further, the TGI with NCI-H460 lung came out at 3.94 µM; in the experiment with HL-60(TB) leukemia, 3.59 µM; with BT-549 breast, 3.3 µM; in the experiment with A549 NSCLC it was 13.1 µM; in the experiment with OVCAR-3 ovarian, 3.32 µM; with SK-MEL-2 melanoma it was 4.8 µM. Besides, the TGI was 3.4 µM in the experiment on MDA-MB-435, 3.95 µM with SN12C renal, 8.39 µM in the experiment with TK-10 renal and 3.48 µM in the experiment on SF-539 CNS.

On to `CC(=O)Oc1ccc(C2=Cc3ccc(OC(C)=O)cc3OC2C)cc1` (stereo not given), for which the GI50 was 3.35 µM in the experiment on NCI-H460 lung; 0.645 µM in the experiment with HL-60(TB) leukemia; 4.66 µM with BT-549 breast; 6.29 µM with A549 NSCLC; 3.33 µM with OVCAR-3 ovarian; 23.4 µM in the experiment with SK-MEL-2 melanoma. Moreover, the GI50 with MDA-MB-435 is 0.63 µM; in the experiment with SN12C renal it was 7.08 µM; in the experiment on TK-10 renal, 20 µM; in the experiment on SF-539 CNS, 2.51 µM. Moreover, the TGI in the experiment with NCI-H460 lung is 13.2 µM; in the experiment with HL-60(TB) leukemia, 4.86 µM; with BT-549 breast, 69.9 µM; in the experiment on A549 NSCLC, greater than 100 µM; in the experiment with OVCAR-3 ovarian, 15.3 µM; in the experiment with SK-MEL-2 melanoma, 78.5 µM. The TGI in the experiment with MDA-MB-435 was 15 µM; with SN12C renal it was greater than 100 µM; in the experiment with TK-10 renal, greater than 100 µM; in the experiment with SF-539 CNS it was 9.07 µM.

As for `S=C1SCN(Cc2ccccc2)CN1Cc1ccco1`, the GI50 with NCI-H460 lung is 5.25 µM; with HL-60(TB) leukemia, 5.91 µM; in the experiment with BT-549 breast it was 2.91 µM; in the experiment with A549 NSCLC, 23.3 µM; in the experiment with OVCAR-3 ovarian, 3.98 µM; in the experiment with SK-MEL-2 melanoma, 3.04 µM. Further, the GI50 in the experiment on MDA-MB-435 is 1.67 µM; in the experiment on SN12C renal it was 4.06 µM; in the experiment with TK-10 renal, 5.79 µM; in the experiment with SF-539 CNS, 2.24 µM. Moreover, the TGI in the experiment on NCI-H460 lung was 22.3 µM; in the experiment on HL-60(TB) leukemia, greater than 100 µM; with BT-549 breast, 12.3 µM; in the experiment with A549 NSCLC it was greater than 100 µM; with OVCAR-3 ovarian, 15 µM; in the experiment on SK-MEL-2 melanoma, 11.9 µM. The TGI with MDA-MB-435 was 10.4 µM; in the experiment with SN12C renal it was 15.3 µM; in the experiment with TK-10 renal, 18.8 µM; with SF-539 CNS it was 6.68 µM.
